In ChEMBL document CHEMBL5729167, “Substituted dihydrothienopyrimidines and their use as phosphodiesterase inhibitors” (2022) one finds IC50 data, which are given here for one compound.

For the experiment, the target named is Tumor necrosis factor (Homo sapiens, UniProt P01375). The experiment can be described thus: TNF-alpha RELEASE: Human peripheral blood mononuclear cells (PBMC) were isolated from fresh buffy coats by density centrifugation using lymphoprep tubes (Medinor). Frozen PBMC's were washed in serum free assay buffer (RPMI1640 with 25 mM HEPES, 1% pen/strep, […], 0.5% human serum albumin) and living cells counted. Lipopolysaccharide (1 microg/ml; SIGMA) was added to the cells which were then transferred to 384 well tissue culture plates (5×105 c/ml) containing titrated test compounds. The cells were incubated for 18 hours at 37° C. in serum free assay buffer and the level of TNFalpha in the supernatant was quantitated by AlphaLISA (PerkinElmer) by measuring fluorescence intensity at 615 nm.Results were expressed as IC50 values calculated from inhibition curves using as controls the secretion in LPS stimulated wells and the secretion in cells incubated with 10 microM of a PDE4 inhibitor reference compound.
Tumor necrosis factor, sequence (P01375 whole entry): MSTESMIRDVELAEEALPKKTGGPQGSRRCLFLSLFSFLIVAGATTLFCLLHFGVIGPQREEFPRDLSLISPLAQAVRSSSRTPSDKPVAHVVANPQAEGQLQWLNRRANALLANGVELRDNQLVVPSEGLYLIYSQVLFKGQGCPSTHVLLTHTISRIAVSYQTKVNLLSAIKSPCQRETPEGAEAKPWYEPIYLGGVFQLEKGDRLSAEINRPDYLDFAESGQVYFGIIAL

Where only a bound is given, the exact number is not on record here.

Broadly, the IC50 is the concentration that inhibits the measured activity by half.

As to `CC(=O)N1CC[C@@H](Nc2nc(N3CC(OC(=O)C4CCOCC4)C3)nc3c2[S@+]([O-])CC3)C1`, the IC50 is more than 500 nM.
